Assay results: PMC9544187 (Environmental Toxicology and Chemistry, 2022)
Read-outs that look alike come from different tables or passages of the source.

Legend:
[1] = Urinary concentrations of NNI compounds in wild raccoons; assay type: in vivo, raccoon, Procyon lotor; settings: for GM ± SD urinary concentration / Percentile 25th urinary concentration / Percentile 50th urinary concentration / Percentile 75th urinary concentration / Percentile 95th urinary concentration / Percentile 100th urinary concentration: raccoon urine, n = 59
[2] = obtained from previous studies on humans; ref Ikenaka et al., [2019]; cited from earlier work
[3] = Japanese people, n = 45; ref Ikenaka et al. ([2019]); cited from earlier work
[4] = mice, 78‐week carcinogenicity study; ref Hirano et al., [2018]; cited from earlier work
[5] = Raccoons: present study (n = 59)

SMILES	Mean urinary neonicotinoid concentration [1, 5] [µg/g creatinine]	GM ± SD urinary concentration ([1]; creatinine‐adjusted) [μg/g creatinine]	Percentile 25th urinary concentration ([1]; creatinine‐adjusted)	Percentile 50th urinary concentration ([1]; creatinine‐adjusted)	Percentile 75th urinary concentration ([1]; creatinine‐adjusted)	Percentile 95th urinary concentration ([1]; creatinine‐adjusted)	Percentile 100th urinary concentration ([1]; creatinine‐adjusted)	GM ± SD urinary concentration ([1]; volume‐adjusted) [µg/L]	Percentile 25th urinary concentration ([1]; volume‐adjusted)	Percentile 50th urinary concentration ([1]; volume‐adjusted)	Percentile 75th urinary concentration ([1]; volume‐adjusted)	Percentile 95th urinary concentration ([1]; volume‐adjusted)	Percentile 100th urinary concentration ([1]; volume‐adjusted)	urinary excretion correction coefficient r [2]	Maximum urinary neonicotinoid concentration [3] [µg/g creatinine]	Mean urinary neonicotinoid concentration [3] [µg/g creatinine]	no‐observable‐adverse‐effect level (NOAEL) [4] [mg/kg]	Maximum urinary neonicotinoid concentration [1, 5] [µg/g creatinine]
C/C(=N\C#N)N(C)Cc1ccc(Cl)nc1 [Acetamiprid, acetamiprid]	0.28	0.10 ± 0.74	<PQL	<PQL	0.25 µg/g creatinine	0.79 µg/g creatinine	5.61 µg/g creatinine	0.07 ± 0.20	<PQL	<PQL	0.23 µg/L	0.33 µg/L	1.29 µg/L	0.586	1.03	0.043	–	–
CN/C(=N\[N+](=O)[O-])NCc1cnc(Cl)s1 [Clothianidin, clothianidin]	0.81	0.26 ± 1.65	<PQL	0.21 µg/g creatinine	0.43 µg/g creatinine	4 µg/g creatinine	9.4 µg/g creatinine	0.17 ± 0.89	<PQL	0.14 µg/L	0.45 µg/L	2.62 µg/L	4.33 µg/L	0.596	15.06	1.06	~50	–
CN/C(=N/CC1CCOC1)N[N+](=O)[O-] (stereo not drawn) [Dinotefuran, dinotefuran]	0.74	0.37 ± 1.64	<PQL	<PQL	<PQL	1.38 µg/g creatinine	10.28 µg/g creatinine	0.25 ± 0.76	<PQL	<PQL	<PQL	1.11 µg/L	5.67 µg/L	0.899	9.49	0.57	–	–
O=[N+]([O-])NC1=NCCN1Cc1ccc(Cl)nc1 [Imidacloprid, imidacloprid]	0.23	0.08 ± 0.75	<PQL	<PQL	<PQL	0.43 µg/g creatinine	5.76 µg/g creatinine	0.06 ± 0.20	<PQL	<PQL	<PQL	0.36 µg/L	1.45 µg/L	0.133	1.59	0.13	–	–
CCN(Cc1ccc(Cl)nc1)/C(=C/[N+](=O)[O-])NC [Nitenpyram, nitenpyram]	0	–	<PQL	<PQL	<PQL	<PQL	<PQL	–	<PQL	<PQL	<PQL	<PQL	<PQL	–	1.25	0.1	–	0
C/C(=N\C#N)NCc1ccc(Cl)nc1 [N‐dm‐acetamiprid, N‐desmethyl‐acetamiprid]	2.48	0.16 ± 10.78	<PQL	<PQL	0.35 µg/g creatinine	8.28 µg/g creatinine	76.56 µg/g creatinine	0.11 ± 9.33	<PQL	<PQL	0.22 µg/L	3.28 µg/L	71.28 µg/L	–	26.92	2.2	–	–
N#C/N=C1\SCCN1Cc1ccc(Cl)nc1 [Thiacloprid, thiacloprid]	0.09	0.03 ± 0.44	<PQL	<PQL	<PQL	<PQL	3.41 µg/g creatinine	0.02 ± 0.04	<PQL	<PQL	<PQL	<PQL	0.32 µg/L	0.05	0.2	0.03	–	–
CN1COCN(Cc2cnc(Cl)s2)/C1=N\[N+](=O)[O-] [Thiamethoxam, thiamethoxam]	0.29	0.10 ± 0.95	<PQL	<PQL	<PQL	0.5 µg/g creatinine	6.96 µg/g creatinine	0.07 ± 0.95	<PQL	<PQL	<PQL	0.42 µg/L	7.30 µg/L	0.6	2.11	0.17	–	–
